# From patent publication US20210121482A1, “WITHANOLIDES FOR THE TREATMENT OF CACHEXIA” (University of Louisville Research Foundation, Inc., priority 2019, published 2021)
# How the values were obtained:
# [1] = test system: Caspase 1, NLRP3, IL-1β, IL-18, HO-1; assay: IHC of NLRP3 inflammasome proteins in tumor samples; type: in vivo, mice
# Procedure: Immunohistochemistry of Tumor Tissue: For the detection of various proteins, 10 μm thick sections were made from the midsection of tumor samples. A hydrophobic boundary was drawn around the sections and then they were fixed in 3.7% formaldehyde solution for 10 minutes. The slides were washed three times with 1×PBS for 5 minutes each. The sections were then blocked in 2% BSA in PBS for 30 minutes. The sections were then incubated with primary antibodies (1:100 dilution) overnight in a humidity chamber at 4° C. The sections were then washed three times with 1×PBS for 5 minutes. The slides were incubated in appropriate secondary antibodies (1:2000 dilution) for 45-60 minutes. Sections were counterstained with DAPI (1:2500 dilution) for 5 minutes to visualize nuclei. Slides were then washed twice in 1×PBS for 5 minutes, and then mounted for visualization. Nonspecific background staining was determined by performing the above protocol with omitting the inclusion of the primary antibodies. Refer to Table 2 for a complete list of antibodies utilized.
# [2] = test system: A2780 ovarian cancer cells; assay: Tumor burden: free peritoneal tumors and bilateral ovaries (Example 3); type: in vivo, mice; conditions: tumor-bearing
# Excerpt: Experimental tumors were induced as described in Example 2.
# No significant difference in tumor weight between the two doses of WFA was observed (p=0.65).
# The IP tumors were metastasized to select organs/anatomic regions known to be highly estrogen-responsive, including free-peritoneal tumors shown in FIG. 19D and bilateral ovaries shown in FIG. 19E.
# [3] = Body composition by DEXA scan; type: in vivo, mice; conditions: 2 and 6 mg/kg
# Procedure: Analysis of Body Composition: Body fat and lean mass composition, as well as the bone mineral content and density, excluding head region of interest (ROI), were determined by dual-energy X-ray absorptiometry (DEXA) scan using a mouse densitometer (PIXImus 2; Lunar, Madison, Wis., USA). According to the manufacturer's guidelines to calibrate and validate the performance of the apparatus, a “mouse phantom” provided with the machine was scanned before scanning the first mouse. Animals were […] immediately before assessment by DEXA scan. The mouse was then transferred to the disposable PIXImus measuring tray in the prone position with their head in a loosely fitting nose cone to aid positioning. Upon completion of the DEXA scan, approximately five minutes, the mouse was placed on ice to preserve tissue prior to collection.
# [4] = test system: heart (cardiomyocytes, collagen deposition); assay: Histology and morphometric heart analysis; type: in vivo, mice
# Excerpt: The hearts were isolated, flash frozen in liquid nitrogen, mounted in O.C.T. embedding medium, and then sectioned using a microtome cryostat. To assess tissue morphology, 8 μm thick transverse sections were cut from the mid-ventricle of the heart. These sections were then subjected to H&E staining or Masson's trichrome staining. Images of H&E-stained and Masson's trichrome-stained heart sections were quantified using Fiji software (National Institutes of Health software) to measure myofiber cross-sectional area (CSA) or the degree of collagen deposition, respectively. Cardiac myofiber CSA was calculated by analyzing 100-200 fibers per heart. Collagen deposition was quantified from the Masson's trichrome-stained tissue.
# [5] = test system: inflammatory cytokines and NLRP3 inflammasome markers in tumor samples; assay: qPCR of xenografted tumor samples; type: in vivo, Homo sapiens
# Procedure: Total RNA Extraction and qPCR: Isolation of total RNA from xenografted tumor samples was performed using an RNeasy® Mini Kit (Qiagen Catalog #74104) according to the manufacturer's instructions. Isolation of total RNA from skeletal muscle was performed using an RNeasy® Fibrous Tissue Mini Kit (Qiagen Catalog #74704) according to the manufacturer's instructions. First strand cDNA was synthesized using 1 μg of purified RNA and a commercially available kit (iScript™ cDNA synthesis, Bio-Rad Catalog #170-8891), Quantification of mRNA expression was performed similar to as previously described (Hindi and Kumar, 2016) using the SYBR Green dye method on a StepOnePlus™ system (Applied Biosystems) using gene-specific primers, as shown in Table 1.
# [6] = test system: left ventricular systolic and diastolic function; assay: Echocardiography; type: in vivo, mice
# Procedure: Left ventricular (LV) systolic and diastolic function were evaluated by transthoracic echocardiography using a Vevo 3100 system and a 40 MHz linear probe (FUJIFILM VisualSonics Inc., Toronto, Ontario, Canada). Mice were anesthetized with isoflurane, maintained at an equivalent surgical depth of anesthesia (induction chamber at 5% with 1.5-2.0 L/min 02 flow, followed by 1.5-2.0% with 1.5-2.0 L/min 02 flow), and placed in the supine position. The skin over the thorax was shaved and then briefly subjected to a depilatory cream. Body temperature was maintained at 37-38° C., and heart rate was monitored using the accompanying Vevo Imaging Station. Briefly, variables that represent diastolic function (E/A ratio, isovolumetric relaxation time (IVRT), and (E/e′) were measured during the resting condition from an apical four-chamber view with conventional pulsed wave tissue Doppler. The E/A ratio was calculated from the peak velocity flow in early diastole (the E wave) to the peak velocity flow in late diastole caused by atrial contraction (the A wave) during resting conditions.
# An image was captured along the parasternal short axis and analyzed offline using the Vevo® Lab software. Standard measures of LV structure [i.e., LV internal diameter (LVID) and LV posterior wall thickness (PWT)] and function [i.e., stroke volume (SV), cardiac output (CO), and ejection fraction (EF)] were obtained along the parasternal short axis during resting and stress conditions. In M-mode, wall thickness and chamber dimensions across the sample line were used to calculate anatomical and functional parameters. End-diastolic and end-systolic volumes were estimated from LVID […]. Results from five cardiac cycles during expiration were averaged together and used for between-group and within-group comparisons. Continuous ECG and heart rate monitoring were performed over a period of one hour while the other measurements were collected.
# [7] = 2 and 6 mg/kg, vs vehicle treated group
# [8] = tumor-bearing, 2 and 4 mg/kg, vs tumor-bearing vehicle
smiles,measurement,setting,value
"CC1=C(CO)C(=O)O[C@@H]([C@@H](C)[C@H]2CC[C@H]3[C@@H]4C[C@H]5O[C@]56[C@@H](O)C=CC(=O)[C@]6(C)[C@H]4CC[C@]23C)C1 [WFA, (4β,5β,6β,22R)-4,27-Dihydroxy-5,6:22,26-diepoxyergosta-2,24-diene-1,26-dione]","expression of IL-1β, IL-18 and HO-1 in tumor (IHC)",[1]; 2 mg/kg,drastically lowered the expression of IL-1β and IL-18 and increased the expression of HO-1
same,"expression of IL-1β, IL-18 and HO-1 in tumor (IHC)",[1]; 6 mg/kg,intermediate expression of all three proteins
same,Caspase 1 and NLRP3 staining in tumor (IHC),[1]; [7],reduction in Caspase 1 and NLRP3 staining
same,normalized weights of the bilateral ovaries,[2]; WFA 2 mg/kg,10.38±1.32 mg/g IBW
same,weight of visible tumors,[2]; WFA 2 mg/kg,1.6 ± 0.19 g
same,normalized weights of the bilateral ovaries,[2]; WFA 4 mg/kg,12.05±2.09 mg/g IBW
same,weight of visible tumors,[2]; WFA 4 mg/kg,1.9 ± 0.35 g
same,bone mineral density or content,[3],No significant differences
same,proportion of lean tissue to body weight,[3]; all tumor-bearing groups vs control,significant increase in the proportion of lean tissue to body weight
same,proportion of adipose tissue to whole body weight,[3]; vs vehicle treated group,attenuation of adipose tissue
same,cross-sectional area (CSA) of cardiomyocytes,[4]; tumor-bearing WFA-treated groups vs tumor-bearing vehicle,partial recovery of the CSA of cardiomyocytes
same,reduction in heart weight (normalized by tibial length),"[4]; tumor-bearing, both doses, vs tumor-bearing vehicle",significantly blunted
same,percentage of connective tissue in heart,"[4]; tumor-bearing, either dose, vs tumor-bearing vehicle",significantly decreased
same,collagen deposition / connective tissue in heart,[4]; tumor-free WFA-treated groups vs tumor-free vehicle,comparable amount of connective tissue
same,heart weight,[4]; tumor-free animals,did not have any effect on heart weight in tumor-free animals
same,"relative transcript levels of TNFα, IFNγ, IL-6, IL-8 in tumor","[5]; 2 mg/kg, vs vehicle treated group",significantly reduced
same,relative transcript levels of HO-1 in tumor,"[5]; 2 mg/kg, vs vehicle treated group (p=0.06)",trended towards an increase
same,relative gene expression of IL-18 in tumor,"[5]; 2 mg/kg, vs vehicle treated group (p=0.07)",trend towards reduction
same,relative mRNA expression of TNFα in tumor,"[5]; 6 mg/kg, vs vehicle treated group",significantly reduced
same,relative transcript levels of HO-1 in tumor,"[5]; 6 mg/kg, vs vehicle treated group (p=0.03)",significantly increased
same,relative expression of IL-6 and IL-8 genes in tumor,"[5]; 6 mg/kg, vs vehicle treated group (p=0.07, p=0.09)",trend towards reduction
same,relative gene expression of IL-18 in tumor,"[5]; 6 mg/kg, vs vehicle treated group (p=0.21)",did not approach the level of statistical significance
same,reduction in NLRP3 mRNA levels in tumor,[5]; [7],not found to be significant
same,relative transcript levels of CASP1 in tumor,[5]; [7],dose-dependent decrease
same,relative transcript levels of IL-1β in tumor,[5]; [7],significantly reduced in both WFA treated groups
same,isovolumetric relaxation time (IVRT),[6]; WFA vs vehicle within tumor-free or tumor-bearing groups,no significant differences within the tumor-free or tumor-bearing groups
same,cardiac output (CO),"[6]; tumor-bearing mice, WFA treatment",similarly normalized
same,LV mass,[6]; [8],significant increase in LV mass
same,"diastolic dysfunction (E/A ratio, E/e′ ratio)",[6]; [8],partially improved
same,fractional shortening (FS),"[6]; tumor-bearing, WFA 2 mg/kg",57.8±3.6%
same,fractional shortening (FS),"[6]; tumor-bearing, WFA 4 mg/kg",55.3±3.2%
same,diastolic function,[6]; tumor-free animals,did not affect diastolic function in tumor-free animals
same,HR and CO,"[6]; tumor-free mice, WFA treatment",did not have any effect on HR or CO in tumor-free mice
same,heart rate,[6]; tumor-free or tumor-bearing WFA-treated groups vs tumor-free vehicle,No significant differences in heart rate
same,LV mass,"[6]; tumor-free, vehicle vs either dose of WFA",No significant difference in LV mass
